Assay: Pulmonary delivery to rats (intratracheal drop instillation)
Assay type: in vivo, male Wistar rats
Details: statement in words; Fig. 1 is a rat intratracheal drop instillation of the insulin of example 1
Experimental: The test substance will be dosed pulmonary by the drop instillation method. In brief, male Wistar rats (app.250 g) are anaesthesized in app. […] fentanyl/dehydrodenzperidol/-dormicum given as a 6.6 ml/kg sc primingdose and followed by 3 maintainance doses of 3.3 ml/kg sc with an interval of 30 min. Ten minutes after the induction of anaesthesia, basal samples are obtained from the tail vein (t = -20 min) followed by a basal sample immediately prior to the dosing of test substance (t=0). At t=0, the test substance is dosed intra tracheally into one lung. A special cannula with rounded ending is mounted on a syringe containing the 200 ul air and test substance (1 ml/kg). Via the orifice, the cannula is introduced into the trachea and is forwarded into one of the main bronchi -just passing the bifurcature. During the insertion, the neck is palpated from the exterior to assure intratracheal positioning. The content of the syringe is injected followed by 2 sec pause. Thereafter, the cannula is slowly drawn back. The rats are kept anaesthesized during the test (blood samples for up to 4 or 8 hrs) and are euthanized after the experiment.

Substance: A14E, B25H, B29K(N^ε-3-mdPEG24-Propionyl), desB30 human insulin [Example 1]
- pulmonary efficacy: substantial protracted pulmonary efficacy

Reference: patent EP2017288A1, “Protease stabilized, pegylated insulin analogues” (NOVO NORDISK A/S, priority 2007, dated 2009)
